Each compound was assayed on RSV Long strain (assay: Viral cytopathic effect (CPE) assay, RSV Long strain). Settings: human respiratory syncytial virus, 144 h, cell viability after 6 days (Cell Counting kit-8).
Format: cell-based, Respiratory Syncytial Virus
Outline: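 Cells in DMEM with 10% FBS infected next day with RSV Long (A subtype) at a dose giving ~80–90% CPE after 6 days, alongside half-log compound dilutions. Viability at day 6 by CCK-8, absorbance 450 nm referenced to 630 nm; EC50 is concentration giving 50% of maximal protection.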
In the case of `CS(=O)(=O)CCn1c(CN2C(=O)C3(CC3)c3ccncc32)nc2cc(Cl)cc(Cl)c21` [Example 37-2, 1′-({5,7-Dichloro-1-[2-(methylsulfonyl)ethyl]-1H-benzimidazol-2-yl}methyl)spiro[cyclopropane-1,3′-pyrrolo[2,3-c]pyridin]-2′(1′H)-one], the EC50 is reported as 16.8 nM. `NC1(Cn2c(CN3C(=O)C4(CC4)c4ccncc43)nc3cc(Cl)ccc32)COC1` [Example 39-1, 1′-({1-[(3-Aminooxetan-3-yl)methyl]-5-chloro-1H-benzimidazol-2-yl}methyl)spiro[cyclopropane-1,3′-pyrrolo[2,3-c]pyridin]-2′(1′H)-one] gave an EC50 of 18 nM. `O=C1N(Cc2cc3cc(Cl)ccc3n2CCN2CCNCC2)c2cnccc2C12CC2` [Example 24-1, 1′-({5-Chloro-1-[2-(piperazin-1-yl)ethyl]-1H-indol-2-yl}methyl)spiro[cyclopropane-1,3′-pyrrolo[2,3-c]pyridin]-2′(1′H)-one] was tested, and the EC50 was 68 nM. Compound `CCc1ccc2c(c1)cc(CN1C(=O)C3(CC3)c3ccncc31)n2CCS(C)(=O)=O` [Example 1-8, 1′-({5-Ethyl-1-[2-(methylsulfonyl)ethyl]-1H-indol-2-yl}methyl)spiro[cyclopropane-1,3′-pyrrolo[2,3-c]pyridin]-2′(1′H)-one] has an EC50 of 220 nM. With `O=C1N(Cc2cc3cc(Cl)ccc3n2CCCS(=O)(=O)N2CCOCC2)c2cnccc2C12CC2` [Example 7-4, 1′-({5-Chloro-1-[3-(morpholin-4-ylsulfonyl)propyl]-1H-indol-2-yl}methyl)spiro[cyclopropane-1,3′-pyrrolo[2,3-c]pyridin]-2′(1′H)-one] the EC50 was 14 nM. With `O=C1N(Cc2cc3cc(Cl)ccc3n2CCCS(=O)(=O)N2CCCC2)c2cnccc2C12CC2` [Example 7-5, 1′-({5-Chloro-1-[3-(pyrrolidin-1-ylsulfonyl)propyl]-1H-indol-2-yl}methyl)spiro[cyclopropane-1,3′-pyrrolo[2,3-c]pyridin]-2′(1′H)-one] the EC50 was 20 nM. `O=C1N(Cc2nc3cc(Cl)ccc3n2CCC2CS(=O)(=O)C2)c2cnccc2C12CC2` [Example 35, 1′-({5-Chloro-1-[2-(1,1-dioxidothietan-3-yl)ethyl]-1H-benzimidazol-2-yl}methyl)spiro[cyclopropane-1,3′-pyrrolo[2,3-c]pyridin]-2′(1′H)-one] gave an EC50 of 1.1 nM. Work on `NC1(Cn2c(CN3C(=O)C4(CC4)c4ccncc43)nc3cc(Cl)cc(F)c32)COC1` [Example 39-2, 1′-({1-[(3-Aminooxetan-3-yl)methyl]-5-chloro-7-fluoro-1H-benzimidazol-2-yl}methyl)spiro[cyclopropane-1,3′-pyrrolo[2,3-c]pyridin]-2′(1′H)-one] yielded an EC50 of 227 nM. For `CC(=O)N=S(C)(=O)CCn1c(CN2C(=O)C3(CC3)c3ccncc32)cc2cc(Cl)ccc21` (stereo not drawn) [Example 15, N-[(2-{5-Chloro-2-[(2′-oxospiro[cyclopropane-1,3′-pyrrolo[2,3-c]pyridin]-1′(2′H)-yl)methyl]-1H-indol-1-yl}ethyl)(methyl)oxido-λ^6-sulfanylidene]acetamide], the EC50 was 25 nM. `CS(=O)(=O)CCn1c(CN2C(=O)C3(CC3)c3cccnc32)cc2cc(Cl)ccc21` [Example 2-5, 1′-({5-Chloro-1-[2-(methylsulfonyl)ethyl]-1H-indol-2-yl}methyl)spiro[cyclopropane-1,3′-pyrrolo[2,3-b]pyridin]-2′(1′H)-one] was tested, and the EC50 was 169 nM. `CS(=O)(=O)CCn1c(CN2C(=O)C3(CC3)c3c(Cl)cccc32)nc2cc(Cl)ccc21` [Example 34-3, 4′-Chloro-1′-({5-chloro-1-[2-(methylsulfonyl)ethyl]-1H-benzimidazol-2-yl}methyl)spiro[cyclopropane-1,3′-indol]-2′(1′H)-one] gave an EC50 of 66 nM. In the case of `[2H]C([2H])(c1cc2cc(Cl)ccc2n1CCCS(C)(=O)=O)N1C(=O)C2(CC2)c2ccncc21` [Example 10, 1′[{-5-Chloro-1-[3-(methylsulfonyl)propyl]-1H-indol-2-yl}(^2H2)methyl]spiro[cyclopropane-1,3′-pyrrolo[2,3-c]pyridin]-2′(1′H)-one], the EC50 is reported as 19 nM.

Source: patent US10189838B2, “Aza-oxo-indoles for the treatment and prophylaxis of respiratory syncytial virus infection” (Hoffmann-La Roche Inc., priority 2013, dated 2019)
